# Assay results published in publication PMC5467147, “Identification of a Peptide for Systemic Brain Delivery of a Morpholino Oligonucleotide in Mouse Models of Spinal Muscular Atrophy” (Nucleic Acid Therapeutics, 2017).
# What was measured:
# SMN2 pre-mRNA exon 7 = assay: In vivo screening of P-PMOs in neonatal SMA mice at PND4, full-length SMN2 by RT-qPCR; set-up: species or system mouse; conditions: facial vein at PND4, 2.66 nmol P-PMO, harvest 7 days after treatment, normalized to total SMN2, relative to saline, mean ± SEM, n = 4–6
# patients = conditions: human, in vivo; cited from earlier work
# [1] = system: severe SMA (Smn1tm1Hung/tm1Hung;SMN2tg/o) mice; assay: Survival and phenotype of severe newborn SMA mice treated at PND0 and PND2; assay type: in vivo, mouse; conditions: severe SMA pups
# Protocol: Experiments were carried out in the Biomedical Sciences Unit, University of Oxford, according to procedures authorized by the UK Home Office and approved by the Unit Approval Board. Experiments were carried out using the SMA-like mouse strain FVB.Cg-Smn1^tm1HungTg(SMN2)2Hung/J. For the purposes of welfare, the peptide screen was carried out on hemizygotic (Smn1^tm1Hung/wt;SMN2^tg/tg) pups generated as previously described. Each litter (n = 4–6 per P-PMO) at PND4 was injected with P-PMO (2.6 nmol) in 10–15 μL of 0.9% saline. The control litter was injected with 0.9% saline. Neonatal mice were euthanized 7 days postinjection and brains, kidneys, and quadriceps were extracted and frozen on dry ice before RNA extraction. The Br-ApoE (K→A)-PMO and Br-ApoE (K→A)-scrambled PMO were further analyzed in homozygotic pups (Smn1^tm1Hung/tm1Hung;SMN2^tg/o) generated as previously described. Pups used for phenotype assessment were injected with 10 μg/g (1 nmol) Br-ApoE (K→A)-PMO, Br-ApoE (K→A)-scrambled PMO, SMA-PMO through the facial vein at PND0 and PND2. Treated animals were weighed daily and observed for survival longevity. A humane endpoint was determined by mobility and weight. Animals who had reached their humane endpoint were euthanized by rising CO2.
# Pups were also tested from PND2 to PND12 for hindlimb strength and […]. Hindlimb strength was scored using a hindlimb suspension (HLS) test developed by PsychoGenics, Inc. and described in the standardized protocols and procedures for preclinical studies by TREAT-NMD. The HLS score relates to the position of the legs and tail of pups suspended by their hindlimbs onto the lip of a 50-cc test tube. A score of 0 − 4 is given with the 0 relating to the weakest phenotype (feet clasped and tail down) and a 4 given to the strongest phenotype (legs spread and tail up). For the purposes of reproducibility, factors such as leg pulls and time were left out of the analysis. Righting reflex was measured by placing pups on their back and timing their ability to right themselves onto all four paws.
# SMNΔ7 mice = conditions: newborn SMNΔ7 mice, single ICV injections (27, 54, and 81 μg) at P0; cited from earlier work
# Protocol: PMO is used in several clinical and preclinical studies due to its high stability and low toxicity. The PMO sequence PMO20, also known as HSMN2Ex7D(−10,-29), has been previously studied by Porensky et al.. Single ICV injections (27, 54, and 81 μg) of this PMO in newborn SMNΔ7 mice at P0 increased the levels of both full-length SMN2 RNA transcript in the brain and spinal cord as well as SMN protein and yielded an increased survival of >100 days. In a similar study, Zhou et al. used the same PMO sequence [PMO20 (−10, −29)] as well as PMO18 (−10, −27) and PMO25 (−10, −34 ...
Substance,"full-length SMN2 transcript, Brain (SMN2 pre-mRNA exon 7)","full-length SMN2 transcript, Kidney (SMN2 pre-mRNA exon 7)","full-length SMN2 transcript, Quad (quadriceps) (SMN2 pre-mRNA exon 7)","patients who developed side effects such as headache, back pain, and postlumbar puncture syndromes (patients)","age range (survival) ([1]; 10 μg/g facial vein at PND0 and PND2, days by b51, saline 6–13)","median survival ([1]; two doses of 10 mg/kg (10 μg/g) facial vein at PND0 and PND2, saline 10.5 days)","hindlimb strength (hindlimb suspension tube test) ([1]; two doses of 10 mg/kg at PND0 and PND2, PND2 to PND12)",survival (SMNΔ7 mice)
AngioPep-2,1 ± 0.03,1.07 ± 0.07,1.24 ± 0.1,–,–,–,–,–
Nusinersen,–,–,–,32 % of patients,–,–,–,–
"SMA-PMO: unconjugated 20-mer PMO for SMN2 exon-7 inclusion, 5′-ATTCACTTTCATAATGCTGG-3′ (all phosphorodiamidate morpholino (PMO))",1 ± 0.02,1 ± 0.04,1.25 ± 0.05,–,11–49,29 days,gradual decline in muscle strength,> 100 days
